Where “and” joins values, the source holds several entries; their conditions need not be identical. Equal entries are not always repeated. Where two headings read alike, the source gives them in different places.
Experiments:
deadenylylated MtbGS = biological target: T1, deadenylylated MtbGS (Mycobacterium tuberculosis, UniProt P9WN39); experiment: biochemical; design: species or system M. tuberculosis; conditions: for inhibition at 10 µM: 10μM final concentration
T1 construct: made in house; host or cells: E. coli YMC11E with pTBSK

[1] = tested on: M.tb (Beijing220) in mouse bone-marrow derived macrophages; experiment: Intracellular M.tb in mouse bone-marrow derived macrophage assay; format: cell-based, Mycobacterium tuberculosis; conditions: 100 μM; for Activity against intracellular M.tb (Beijing220), in words: Fig 7; for Percentage killing of intracellular M.tb (Beijing220), Fig 7: MOI 2:1, drug on day 4 post infection, harvest day 2 post drug, first experiment (8 selective compounds)
adenylylated MtbGS = biological target: T2, adenylylated MtbGS (Mycobacterium tuberculosis, UniProt P9WN39); experiment: biochemical; format: biochemical, M. tuberculosis; conditions: for inhibition at 10 µM: 10μM final concentration; for Selectivity for adenylylated vs deadenylylated MtbGS: from % inhibition at 10μM of both enzyme forms
T2 construct: made in house; host or cells: E. coli YMC11E(DE3) with pTBSK and pTBglnE

[2] = tested on: M.tb H37Rv reference strain; experiment: BACTEC 460TB assay of mycobacterial growth; format: cell-based, Mycobacterium tuberculosis
M. tuberculosis = conditions: both in vitro and in vivo; cited from earlier work
[3] = tested on: M.tb H37Rv reference strain (ATCC 25618); design: method as in PMID 9145860; conditions: approximately 10x higher than the minimal inhibitory concentrations; cited from earlier work
[4] = tested on: M.tb (Beijing220) clinical isolate; conditions: cited from earlier work
[5] = pre-incubation protocol, average over the 4 screens, read-out: Deadenylated Mtb GS (% inhibition) AVG
[6] = pre-incubation protocol, screen 1, read-out: Deadenylated Mtb GS (% inhibition) Screen 1
[7] = pre-incubation protocol, screen 2, read-out: Deadenylated Mtb GS (% inhibition) Screen 2
[8] = pre-incubation protocol, screen 3, read-out: Deadenylated Mtb GS (% inhibition) Screen 3
[9] = pre-incubation protocol, screen 4, read-out: Deadenylated Mtb GS (% inhibition) Screen 4
[10] = pre-incubation protocol, average over the 4 screens, read-out: Adenylated Mtb GS (% inhibition) AVG
[11] = pre-incubation protocol, screen 1, read-out: Adenylated Mtb GS (% inhibition) Screen 1
[12] = pre-incubation protocol, screen 2, read-out: Adenylated Mtb GS (% inhibition) Screen 2
[13] = pre-incubation protocol, screen 3, read-out: Adenylated Mtb GS (% inhibition) Screen 3
[14] = pre-incubation protocol, screen 4, read-out: Adenylated Mtb GS (% inhibition) Screen 4
[15] = dose-response assay, pre-incubation protocol, single assay values, read-out: IC50, adenylylated MtbGS
[16] = dose-response assay, enzyme form not given, read-out: IC50 concentration, MtbGS
[17] = dose-response assay, pre-incubation protocol, single assay values

T1 sequence (P9WN39 2-478 limits assumed): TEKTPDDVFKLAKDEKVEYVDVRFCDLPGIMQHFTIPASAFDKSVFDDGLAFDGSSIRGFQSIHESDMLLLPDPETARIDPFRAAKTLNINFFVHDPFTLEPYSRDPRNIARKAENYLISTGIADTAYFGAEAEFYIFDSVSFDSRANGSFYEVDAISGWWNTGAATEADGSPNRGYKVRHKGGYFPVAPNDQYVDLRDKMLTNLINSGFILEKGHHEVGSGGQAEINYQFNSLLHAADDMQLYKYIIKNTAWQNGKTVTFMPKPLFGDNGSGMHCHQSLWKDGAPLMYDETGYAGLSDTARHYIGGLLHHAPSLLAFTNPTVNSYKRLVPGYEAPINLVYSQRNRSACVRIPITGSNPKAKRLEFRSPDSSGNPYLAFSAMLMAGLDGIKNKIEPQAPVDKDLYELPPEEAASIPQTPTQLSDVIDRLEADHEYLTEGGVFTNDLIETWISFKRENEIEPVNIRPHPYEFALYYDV
T2 sequence (P9WN39 2-478 limits assumed): as above

Compound	inhibition at 10 µM (deadenylylated MtbGS; [5]) [%]	inhibition at 10 µM (deadenylylated MtbGS; [6]) [%]	inhibition at 10 µM (deadenylylated MtbGS; [7]) [%]	inhibition at 10 µM (deadenylylated MtbGS; [8]) [%]	inhibition at 10 µM (deadenylylated MtbGS; [9]) [%]	inhibition at 10 µM (adenylylated MtbGS; [10]) [%]	inhibition at 10 µM (adenylylated MtbGS; [11]) [%]	inhibition at 10 µM (adenylylated MtbGS; [12]) [%]	inhibition at 10 µM (adenylylated MtbGS; [13]) [%]	inhibition at 10 µM (adenylylated MtbGS; [14]) [%]	Breakpoint concentration to which the H37Rv strain was sensitive [3] [µg/mL]	other results
Cc1cccc(C)c1Nc1c(C(C)C)nc2ccccn12 [Compound 10057]	59	67	62	47	58	99	100	99	98	100		Activity against intracellular M.tb (Beijing220), in words [1]: moderate activity; Percentage killing of intracellular M.tb (Beijing220), Fig 7 [1]: 65%; IC50 (adenylylated MtbGS; [15]): 3.51 µM and 15.6 µM; IC50 (adenylylated MtbGS; [16]): < 100 µM; Selectivity for adenylylated vs deadenylylated MtbGS (adenylylated MtbGS): GS-adenylylated specific; Growth inhibition of M.tb H37Rv (percentage of growth index) ([2]; 100 μM, day 6 of incubation, relative to control cultures): 53%
COc1ccc(-c2nc3ccccn3c2Nc2c(C)cccc2C)cc1OC [Compound 10059]	44	49	48	36	43	91	82	99	82	100		IC50 (deadenylylated MtbGS; [17]): 13.2 µM and 17.1 µM; Activity against intracellular M.tb (Beijing220), in words [1]: moderate activity; Percentage killing of intracellular M.tb (Beijing220), Fig 7 [1]: 54%; IC50 (adenylylated MtbGS; [16]): < 100 µM; Selectivity for adenylylated vs deadenylylated MtbGS (adenylylated MtbGS): GS-adenylylated specific
Nc1nc(O)c2ccccc2n1 [Compound 12004]	42	50	43	38	38	34	39	32	33	30		Activity against M.tb H37Rv, in words ([2]; 100 μM final concentration): no activity
CS(=N)(=O)CC[C@H](N)C(=O)O (stereo partly drawn) [MSO, L-methionine-S,R-sulphoximine, reference compound]												Deadenylated Mtb GS (% inhibition) AVG (deadenylylated MtbGS): 100%; Deadenylated Mtb GS (% inhibition) Screen 1 (deadenylylated MtbGS): 100%; Deadenylated Mtb GS (% inhibition) Screen 2 (deadenylylated MtbGS): 100%; Deadenylated Mtb GS (% inhibition) Screen 3 (deadenylylated MtbGS): 99%; Deadenylated Mtb GS (% inhibition) Screen 4 (deadenylylated MtbGS): 100%; IC50 (deadenylylated MtbGS): 1.6 µM; Growth of M. tuberculosis (M. tuberculosis): inhibits growth; Adenylated Mtb GS (% inhibition) AVG (adenylylated MtbGS): 99%; Adenylated Mtb GS (% inhibition) Screen 1 (adenylylated MtbGS): 100%; Adenylated Mtb GS (% inhibition) Screen 2 (adenylylated MtbGS): 100%; Adenylated Mtb GS (% inhibition) Screen 3 (adenylylated MtbGS): 96%; Adenylated Mtb GS (% inhibition) Screen 4 (adenylylated MtbGS): 100%; IC50 (adenylylated MtbGS; read-out: IC50, adenylylated MtbGS): 0.16 µM
CP(=O)(O)CC[C@H](N)C(=O)O [PhosT, phosphinotricin, reference compound]	100	100	98	100	100	98	100	95	97	100		IC50 (deadenylylated MtbGS; [17]): 0.83 µM; IC50 (adenylylated MtbGS; [15]): 0.016 µM
CC[C@@H](CO)NCCN[C@@H](CC)CO [ethambutol]											9.4	
NNC(=O)c1ccncc1 [isoniazid]											0.25	Susceptibility of the Beijing220 clinical isolate [4]: resistant
CO[C@H]1/C=C/O[C@@]2(C)Oc3c(C)c(O)c4c(O)c(c(/C=N/N5CCN(C)CC5)c(O)c4c3C2=O)NC(=O)/C(C)=C\C=C\[C@H](C)[C@H](O)[C@@H](C)[C@@H](O)[C@@H](C)[C@H](OC(C)=O)[C@@H]1C [rifampicin]											2.0	Susceptibility of the Beijing220 clinical isolate [4]: resistant

From publication PMC5626031, “Differential inhibition of adenylylated and deadenylylated forms of M. tuberculosis glutamine synthetase as a drug discovery platform” (PLoS ONE, 2017)
